From patent US20250213649A1, “PEPTIDE HAVING ANTI-INFLAMMATORY AND ANTI-FIBROTIC ACTIVITIES AND USE THEREOF” (CAREGEN CO., LTD., priority 2022, published 2025)

What was measured:
MRC-5 cells = assay: Inhibition of LPS-induced inflammatory cytokine gene expression, RT-PCR, MRC-5 cells; format: cell-based; details: 5 μg/ml LPS, peptide 10, 50, 100, 500 μM, 24 hours, RT-PCR (FIG. 1)
Procedure: MRC-5 cells (lung fibroblast cells) were seeded at 3×10^5 cells/well in a 12-well plate and used in the experiment. After culturing for 1 day with a culture medium containing 10% FBS, the culture medium was replaced with a culture medium without containing FBS to induce starvation for 4 hours. A normal group without being treated with any substances, a group treated with 5 μg/ml of LPS (Sigma Aldrich) (negative control group), groups treated with 5 μg/ml of LPS and the peptide of Production Example 1 (10, 50, 100, 500 μM), and a group treated with 5 μg/ml of LPS and 10 μM of Dexamethasone (DEX) (positive control group) were treated with active substances and drugs respectively, and then RNA was extracted after 24 hours to carry out RT-PCR. RNA was extracted from MRC-5 cells using an easy-BLUE™ Total RNA extraction kit (Qiagen, Germany). The extracted RNA was converted into cDNA with RT-PCR premix (iNtRON Biotechnology, Seongnam, Korea). After preparing a reaction mixture with PCR premix (iNtRON Biotechnology, Seongnam, Korea) and primers for each gene, PCR was carried out using a PCR machine (Eppendorf, Germany). Next, the mRNA expression pattern was determined by agarose gel electrophoresis. The base sequences of the primers used in the experiment are listed in [Table 2] below.

BALB/c mice = assay: BLM-induced pulmonary fibrosis model, Masson's Trichrome staining of lung tissue collagen; format: in vivo; details: BALB/c male mice, peptide 1 mg/mouse intranasal three times a week for 14 days, 21st day, Trichrome staining (FIG. 15a, 15b)
Procedure: As shown in [Table 6] below, 8-week-old BALB/c male mice were divided into 4 groups of 5 mice each. On the 1st day, a Bleomycin solution ([…]/50 μl/mouse) was administered through the oropharynx to carry out one time of induction with BLM. Then, from the 7th day, the peptide of Production Example 1 (1 mg/mouse) was administered intranasally three times a week for 14 days, and Pirfeninone (2 mg/mouse) for a positive control group was administered orally three times a week for 14 days. On the 21st day of the induction with BLM, mice were sacrificed to obtain the bronchoalveolar lavage fluid and the lung tissue, which were used in the next analysis.
The lung tissue obtained from mice subjected to the animal experiment was washed with PBS at room temperature and then fixed with 4% paraformaldehyde (PBS dilution). The fixed tissue was washed three times with PBS and dehydrated using an ethanol series having a concentration gradient of 70% to 100%. Next, the lung tissue sample was embedded and cut into slices having a thickness of 4 μm. The sliced specimen having a size of 4 μm, which was placed on a slide glass, was dewaxed and hydrated in an ethanol series having a concentration gradient. Staining was carried out for 10 minutes in each of Weigert's iron hematoxlin, a Biebrich scarlet-acid fuchsin solution, a Phosphomolybdic-phosphotungstic acid solution, and an aniline blue solution. […]

KYLLVHRPYYRR [peptide of Production Example 1]
gene expression of IL-1β (MRC-5 cells): decreases in a concentration-dependent manner | gene expression of IL-6 (MRC-5 cells): decreases in a concentration-dependent manner | gene expression of IL-8 (MRC-5 cells): decreases in a concentration-dependent manner | gene expression of TNF-α (MRC-5 cells): decreases in a concentration-dependent manner | degree of collagen deposition in the lung tissue (BALB/c mice): significantly reduced
